One block for each molecule: values may come before it. Where a SMILES comes first, the peptide text is derived from it. The star is where a group is joined. NBD = O=[N+]([O-])c1ccc(*)c2nonc12; Ahx = NCCCCCC(=O)O
What was measured:
[1] = test system: HO-1 expression in A549 cells; assay: HO-1 ELISA of treated A549 cells; assay type: cell-based, human; conditions: 24 h, HO-1 ELISA kit, versus DMSO control
Protocol: 7. Enzyme linked immunosorbent assay (ELISA)
A549 cells (8×10^3 cells per well) were seeded in 6-well plates and incubated in a CO2 incubator at 37°C for 24 h. Cells were treated with 50 μM hemin, 1 μM ZnPP or DMSO. After 24 h incubation, cells were washed with PBS, lysed with NP-40 buffer containing 1.0 mM PMSF, followed by centrifugation (12000 rpm, 5 min) to harvest the supernatant. The assay was carried out by strictly following instructions provided. Absorbance at 450 nm was recorded using the BioTek Synergy-2 Microplate Reader to calculate the HO-1 concentration under different treatments. […]
(§1) 37°C for 24 h. Cells were treated with 50 μM hemin, 1 μM ZnPP or DMSO. After 24 h incubation, 10 μM NBD-P 5 was added and incubated with the cells for 2 h. The cells were then fixed with 4% polyoxymethylene for 20 min. Afterwards, the nuclei were stained using DAPI for 20 min. […]

[2] = test system: HO-1 levels in live A549 cells; assay: Fluorescence imaging of HO-1 levels with NBD-P5 in treated A549 cells; assay type: cell-based, human; conditions: A549 cells pretreated 24 h (hemin 50 μM, ZnPP 1 μM), then NBD-P5 10 μM 2 h, confocal imaging
Protocol: (§2) 37°C for 24 h. Cells were treated with 50 μM hemin, 1 μM ZnPP or DMSO. […]
A549 cells (8×10^3 cells per well) were seeded into confocal dish and incubated in a CO2 incubator at 37°C for 24 h. Cells were treated with 50 μM hemin, 1 μM ZnPP or DMSO. After 24 h incubation, 10 μM NBD-P 5 was added and incubated with the cells for 2 h. The cells were then fixed with 4% polyoxymethylene for 20 min. Afterwards, the nuclei were stained using DAPI for 20 min.
Fluorescence images were measured by ZEISS LSM 980 with Airyscan 2 confocal laser scanning

HO-1 expression = conditions: study by Fang and co-workers; cited from earlier work
[3] = biological target: T1, recombinant HO-1 protein with a 6xHis tag (Homo sapiens, UniProt P09601); assay: Luminescence titration of NBD-Pn with HO-1; assay type: binding; conditions: 4.5 μM HO-1, 2 μM probe, pH 7.4 PBS, λex = 475 nm; for increase in fluorescence intensity on addition of HO-1: emission at 526 nm, measured within 1 min
T1 construct: 6xHis
T1 sequence (P09601 1-288): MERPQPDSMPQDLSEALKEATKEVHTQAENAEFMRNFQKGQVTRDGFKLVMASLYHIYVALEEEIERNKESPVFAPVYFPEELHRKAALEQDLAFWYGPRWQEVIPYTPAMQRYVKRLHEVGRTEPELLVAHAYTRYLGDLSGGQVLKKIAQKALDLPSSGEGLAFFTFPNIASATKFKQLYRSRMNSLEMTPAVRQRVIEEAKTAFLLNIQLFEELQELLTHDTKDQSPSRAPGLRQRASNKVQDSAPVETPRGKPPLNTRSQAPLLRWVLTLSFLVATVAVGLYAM
Protocol: (§3) 4. Photophysical measurements
(§4) All spectra were measured using a stock solution of the probes (1 mM in DMSO) which was diluted with pH 7.4 PBS buffer to the desired concentration. […]
All measurements were conducted using a 700 μL quartz cuvette and within a minute after addition of the analyte. […]

[4] = biological target: human serum albumin (HSA) (Homo sapiens, UniProt P02768); assay: Selectivity assay, emission with HSA; assay type: binding; conditions: 4.5 μM HSA, 2 μM probe, pH 7.4 PBS, emission at 526 nm
Sequence of human serum albumin (HSA) (P02768 25-609): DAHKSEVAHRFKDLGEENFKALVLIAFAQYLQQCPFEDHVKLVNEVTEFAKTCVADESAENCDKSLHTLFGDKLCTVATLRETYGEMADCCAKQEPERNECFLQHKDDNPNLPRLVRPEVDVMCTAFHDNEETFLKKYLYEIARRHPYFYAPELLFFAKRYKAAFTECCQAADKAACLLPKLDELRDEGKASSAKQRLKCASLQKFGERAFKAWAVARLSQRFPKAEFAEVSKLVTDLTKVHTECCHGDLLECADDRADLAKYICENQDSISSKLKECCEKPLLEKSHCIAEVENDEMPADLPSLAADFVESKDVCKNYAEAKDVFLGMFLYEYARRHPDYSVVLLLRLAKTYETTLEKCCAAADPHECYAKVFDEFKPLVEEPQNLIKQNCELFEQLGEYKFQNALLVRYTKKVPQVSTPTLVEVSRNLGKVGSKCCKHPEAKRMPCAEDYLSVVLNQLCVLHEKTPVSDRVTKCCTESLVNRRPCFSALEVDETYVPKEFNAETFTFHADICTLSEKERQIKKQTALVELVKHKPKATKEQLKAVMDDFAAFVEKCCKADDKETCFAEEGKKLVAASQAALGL
Protocol: as §3, §4
(§5) Selectivity assay was performed by measuring emission of NBD-Pn in pH 7.4 PBS buffer in presence of varying analytes including HO-1, common proteins, amino acids, and biologically relevant ions. All measurements were conducted using a 700 μL quartz cuvette and within a minute after addition of the analyte. […]

[5] = biological target: bovine serum albumin (BSA) (Bos taurus, UniProt P02769); assay: Selectivity assay, emission with BSA; assay type: binding; conditions: 4.5 μM BSA, 2 μM probe, pH 7.4 PBS, emission at 526 nm
Sequence of bovine serum albumin (BSA) (P02769 25-607): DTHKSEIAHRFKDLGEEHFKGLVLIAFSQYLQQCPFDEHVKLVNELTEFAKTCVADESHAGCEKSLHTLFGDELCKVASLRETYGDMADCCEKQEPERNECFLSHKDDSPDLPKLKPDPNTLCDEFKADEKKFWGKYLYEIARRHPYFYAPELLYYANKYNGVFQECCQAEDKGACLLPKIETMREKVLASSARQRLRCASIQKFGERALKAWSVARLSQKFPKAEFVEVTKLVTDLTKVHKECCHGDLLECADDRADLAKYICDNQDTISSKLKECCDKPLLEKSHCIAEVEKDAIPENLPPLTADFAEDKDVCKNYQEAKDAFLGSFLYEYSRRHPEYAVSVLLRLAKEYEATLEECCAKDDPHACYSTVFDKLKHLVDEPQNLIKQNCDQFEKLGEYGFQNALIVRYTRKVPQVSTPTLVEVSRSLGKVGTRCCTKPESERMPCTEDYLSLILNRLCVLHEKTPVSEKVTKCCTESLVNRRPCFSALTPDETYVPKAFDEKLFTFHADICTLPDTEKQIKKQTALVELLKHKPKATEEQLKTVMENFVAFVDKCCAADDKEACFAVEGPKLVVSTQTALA
Protocol: as §3, §4, §5

A549 cells [6] = assay: Flow cytometry analysis of cellular uptake; assay type: cell-based, human; conditions: 10 μM, time course of 2.5 h
Protocol: as §2
8. Flow cytometry analysis
A549 cells were first seeded into 12-well plates (1.0 × 10^5 cells/well) and incubated overnight to achieve adherence. Then, 10 μM NBD-P 5 was added, and incubated for different times. The cells were washed twice with cold PBS and harvested by trypsinization, followed by centrifugation (1500 x g, 5.0 min). The obtained cells were re-suspended in PBS and analyzed using flow cytometry (BD […]
as §1

A549 cells [7] = assay: Colocalization experiment with organelle trackers; assay type: cell-based, human; conditions: 10 μM probe 2 h
Protocol: 10. Colocalization experiment
A549 cells (8×10^3 cells per well) were seeded into confocal dish and incubated in a CO2 incubator at 37°C for 24 h. After incubation with NBD-P5 (10 μM) for 2 h, cells were co-stained with ER-Tracker red (400 nM) for 20 min, Lyso-Tracker red (60 nM) for 30 min, or Mito-Tracker red (50 nM) for 30 min. Fluorescence images were measured by ZEISS LSM 980 with Airyscan 2 confocal laser scanning

NBD-P5 = biological target: T2, NBD-P5; assay: other fluorescence titration; emission of the NBD probe (2 uM, ex 475 nm, read at 526 nm) on addition of protein in solution (HO-1 in increasing concentrations up to 4.5 uM; HSA, BSA at 4.5 uM); measured within a minute after addition; conditions: both partners purified
T2 construct: also called YWFYR-CONH2; NBD-Pn (n = 5); source: synthetic peptide, NBD-Ahx coupled with PyBOP, TFA cleavage, reversed-phase HPLC
T2 peptide: {NBD-Ahx}-YWFYR-NH2

NBD-P4 = biological target: T3, NBD-P4; assay: as above; conditions: both partners purified
T3 construct: caveolin-1 residues Y97-Y100 (the pentapeptide without arginine 101); also called YWFY-CONH2; NBD-Pn (n = 4); source: synthetic peptide, NBD-Ahx coupled with PyBOP, TFA cleavage, reversed-phase HPLC
T3 peptide: {NBD-Ahx}-YWFY-NH2

Molecule: hemin
- upregulation of HO-1 expression ([1]; 50 μM): around 1.53 fold
- NBD-P5 fluorescence in treated cells compared with control cells [2]: significantly stronger green fluorescence

Molecule: CC(C)(C)c1cc(O)ccc1O [tBHQ]
- upregulation of HO-1 (HO-1 expression): about 1.6 fold

Molecule: C=CC1=C(C)c2cc3[n-]c(cc4[n-]c(cc5nc(cc1n2)C(C)=C5C=C)c(C)c4CCC(=O)O)c(CCC(=O)O)c3C.[Zn+2] [ZnPP, zinc(II) protoporphyrin]
- HO-1 level relative to DMSO control ([1]; 1 μM): 0.89 fold
- NBD-P5 fluorescence in treated cells compared with control cells [2]: relatively weaker fluorescence signal

Molecule: NC(=O)[C@H](Cc1ccc(O)cc1)NC(=O)[C@H](Cc1ccccc1)NC(=O)[C@H](Cc1c[nH]c2ccccc12)NC(=O)[C@H](Cc1ccc(O)cc1)NC(=O)CCCCCNc1ccc([N+](=O)[O-])c2nonc12 [NBD-P4] (HELM PEPTIDE1{[O=[N+]([O-])c1ccc([*:2])c2nonc12].[O=C(CCCCCN[*:1])[*:2]].Y.W.F.Y.[am]}$$$$V2.0)
- increase in fluorescence intensity on addition of HO-1 [3]: 6 fold

Molecule: N=C(N)NCCC[C@H](NC(=O)[C@H](Cc1ccc(O)cc1)NC(=O)[C@H](Cc1ccccc1)NC(=O)[C@H](Cc1c[nH]c2ccccc12)NC(=O)[C@H](Cc1ccc(O)cc1)NC(=O)CCCCCNc1ccc([N+](=O)[O-])c2nonc12)C(N)=O [NBD-P5] (HELM PEPTIDE1{[O=[N+]([O-])c1ccc([*:2])c2nonc12].[O=C(CCCCCN[*:1])[*:2]].Y.W.F.Y.R.[am]}$$$$V2.0)
- blue shift in fluorescence wavelength maxima on addition of HO-1 [3]: 24 nm
- increase in fluorescence intensity on addition of HO-1 [3]: 9 fold
- fluorescence change on addition of HSA [4]: small fluorescence increase
- fluorescence change on addition of BSA [5]: small fluorescence increase
- uptake by A549 cells (A549 cells [6]): increased rapidly in the first 1 h
- Pearson's correlation coefficient with ER-Tracker red (A549 cells [7]; ER-Tracker red 400 nM 20 min, ImageJ): 0.97
- colocalization with either Lyso-Tracker or Mito-Tracker (A549 cells [7]; Lyso-Tracker red 60 nM or Mito-Tracker red 50 nM 30 min): not as significant as that with ER-Tracker

- fold increase in fluorescence intensity of the probe with 4.5 uM HO-1 (NBD-P5): 9 fold
- fold increase in fluorescence intensity of the probe with HO-1 (NBD-P4): 6 fold
B1: Heme oxygenase-1 (enzyme)
chain: T1 sequence (P09601 1-288)

Reference: publication PMC11773557, “NADPH-Independent Fluorescent Probe for Live-Cell Imaging of Heme Oxygenase-1” (ACS Sensors, 2025)
